One series relates to C. xeroses. In kind it is cell-based, Corynebacterium xerosis. The essentials:
(§1)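 Liquid-broth rather than agar method. Organisms: clinical isolates (C. albicans, S. epidermidis), environmental C. xerosis, wild-type E. coli UB1005.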

Another series deals with C. Albicans. In kind it is cell-based, Candida albicans. Put shortly: as §1
In a further series the test system is B. subtilis. The format is cell-based, Bacillus subtilis. The essentials:
(§2)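 Antimicrobial activity is measured by a liquid-broth assay in LB at 37 °C overnight, starting from 5×10^5 CFU/mL. Values are minimal inhibitory concentrations, i.e. the lowest concentration that stops growth.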

The next series concerns human erythrocytes. As to the kind of experiment: Hemolytic activity. In kind it is cell-based. Here is the method: Serial dilutions of the peptides in saline were prepared in round bottom microtitre plates using 100 μL volumes. Red blood cells were diluted with saline to 1/25 packed volume of cells and 50 μL added to each well. Plates were incubated with rocking at 37° C., and the concentration required for complete lysis determined visually after 4 h.

The test system of a further series is E. faecalis. The format is cell-based, Enterococcus faecalis. The essentials: as §2
The next series concerns E. coli DC2. The format is cell-based, Escherichia coli. The following applies: DC2. Put shortly:
(§3)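 Liquid-broth microdilution: overnight LB cultures at 37 °C, diluted to a final inoculum of 5×10^5 CFU/mL with serial peptide dilutions, incubated overnight at 37 °C. MIC (μg/ml) is the lowest concentration that inhibited growth. Therapeutic index is the concentration giving complete hemolysis at 4 h divided by the MIC.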

Another series concerns E. coli UB1005. The format is cell-based, Escherichia coli. The following applies: UB1005. The essentials: as §1
The next series concerns P. aeruginosa H188. In kind it is cell-based, Pseudomonas aeruginosa. The following applies: H188. The essentials:
as §2

Series [1] can be described thus: Displacement of dansyl-polymyxin from LPS. In kind it is binding, P. aeruginosa. To be noted: read-out: LPS binding affinity: peptide concentration to displace 50% of dansyl-polymyxin B from LPS; Tables 1, 4, 7. The essentials:
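Peptides titrated into 3 μg/mL P. aeruginosa LPS with 2.5 μM dansyl-polymyxin (~90% site saturation) in 5 mM sodium HEPES, pH 7.0; fluorescence decrease recorded. I50 (50% probe displacement) taken from the x-intercept of a double-reciprocal plot of percent inhibition versus inhibitor concentration.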

A further series has as its system S. aureus K147. In kind it is cell-based, Staphylococcus aureus. Put shortly: as §3
In a further series the test system is S. aureus SAP0017. In kind it is cell-based, Staphylococcus aureus. The essentials: as §3
For the next series, the system named is S. epidermidis. The format is cell-based, Staphylococcus epidermidis. Put shortly:
as §1

A further series deals with S. typhinurium C587. In kind it is cell-based, Salmonella typhinurium. Put shortly:
as §2

Another series has as its system S. typhinurium C610. In kind it is cell-based, Salmonella typhinurium. The essentials:
as §2

Another series relates to P. aeruginosa H187. The format is cell-based, Pseudomonas aeruginosa. The following applies: H187. The essentials: as §3

Like-named read-outs stand apart in the source and are kept apart here.

Consider `CC(C)C[C@@H]1NC(=O)[C@H](C(C)C)NC(=O)[C@H](CC(C)C)NC(=O)[C@@H]2CCCN2C(=O)[C@@H](Cc2ccc(O)cc2)NC(=O)[C@H](C(C)C)NC(=O)[C@H](CC(C)C)NC(=O)[C@H](C(C)C)NC(=O)[C@H](CCCCN)NC(=O)[C@H](CCCCN)NC(=O)[C@@H]2CCCN2C(=O)[C@@H](Cc2ccc(O)cc2)NC(=O)[C@H](CCCCN)NC(=O)[C@H](CCCCN)NC1=O` [GS14napol], for which the “Minimum Inhibitory Concentration (activity)” value with C. xeroses is 1.2 µg/mL; with C. Albicans, 37 µg/mL; in the series on B. subtilis it was above 200 µg/mL; in the series with E. faecalis it was 75 µg/mL; in the series on E. coli DC2, 4 µg/mL; in the series with E. coli UB1005, 18 µg/mL. In addition, the “Minimum Inhibitory Concentration (activity)” value was 9 µg/mL in the series on P. aeruginosa H188; above 200 µg/mL in the series on S. aureus K147; 200 µg/mL in the series with S. aureus SAP0017; 25 µg/mL in the series with S. epidermidis; 50 µg/mL in the series with S. typhinurium C587; 25 µg/mL in the series with S. typhinurium C610. For the same compound, the “Minimum Inhibitory Concentration (activity)” value in the series on P. aeruginosa H187 is 50 µg/mL. For the same compound, the “Hemolytic activity: peptide concentration for 100% lysis of human erythrocytes” value in the series with human erythrocytes was found to be 800 µg/mL. Further, in [1], the IC50 is 98 µM.

In the case of `CC(C)[C@@H]1NC(=O)[C@H](CCCCN)NC(=O)[C@H](C)NC(=O)[C@@H]2CCCN2C(=O)[C@@H](Cc2ccc(O)cc2)NC(=O)[C@H](C(C)C)NC(=O)[C@@H](CCCCN)NC(=O)[C@H](C)NC(=O)[C@H](CCCCN)NC(=O)[C@H](C(C)C)NC(=O)[C@@H]2CCCN2C(=O)[C@@H](Cc2ccc(O)cc2)NC(=O)[C@H](C)NC(=O)[C@H](CCCCN)NC1=O` [L3/A3], the “Minimum Inhibitory Concentration (activity)” value in the series on C. xeroses was 100 µg/mL; in the series on C. Albicans, above 200 µg/mL; with B. subtilis it was above 200 µg/mL; in the series with E. faecalis, above 200 µg/mL; in the series with E. coli DC2 it was 200 µg/mL; with E. coli UB1005, 200 µg/mL. Moreover, the “Minimum Inhibitory Concentration (activity)” value is 75 µg/mL in the series with P. aeruginosa H188; above 200 µg/mL in the series with S. aureus K147; above 200 µg/mL in the series on S. aureus SAP0017; above 200 µg/mL in the series with S. epidermidis; above 200 µg/mL in the series on S. typhinurium C587; 100 µg/mL in the series with S. typhinurium C610. Moreover, in the series on P. aeruginosa H187, the “Minimum Inhibitory Concentration (activity)” value was 200 µg/mL. Further, the “Hemolytic activity: peptide concentration for 100% lysis of human erythrocytes” value in the series on human erythrocytes is above 800 µg/mL. Also, in series [1], the IC50 worked out at 243 µM.

As for `CC(C)C[C@@H]1NC(=O)[C@H](CCCCN)NC(=O)[C@H](C)NC(=O)[C@@H]2CCCN2C(=O)[C@@H](Cc2ccc(O)cc2)NC(=O)[C@H](CC(C)C)NC(=O)[C@H](CCCCN)NC(=O)[C@H](C)NC(=O)[C@H](CCCCN)NC(=O)[C@H](CC(C)C)NC(=O)[C@@H]2CCCN2C(=O)[C@@H](Cc2ccc(O)cc2)NC(=O)[C@H](C)NC(=O)[C@@H](CCCCN)NC1=O` [V3/A3], the “Minimum Inhibitory Concentration (activity)” value with C. xeroses was 3.1 µg/mL; in the series on C. Albicans, 50 µg/mL; with B. subtilis, above 200 µg/mL; in the series with E. faecalis, above 200 µg/mL; in the series with E. coli DC2, 9 µg/mL; with E. coli UB1005, 12.5 µg/mL. The “Minimum Inhibitory Concentration (activity)” value with P. aeruginosa H188 is 18 µg/mL; in the series on S. aureus K147 it was above 200 µg/mL; with S. aureus SAP0017, above 200 µg/mL; in the series with S. epidermidis it was 50 µg/mL; with S. typhinurium C587 it was 35 µg/mL; with S. typhinurium C610 it was 62 µg/mL. In the series with P. aeruginosa H187, the “Minimum Inhibitory Concentration (activity)” value is 75 µg/mL. Besides, the “Hemolytic activity: peptide concentration for 100% lysis of human erythrocytes” value with human erythrocytes was above 800 µg/mL. The IC50 in series [1] amounted to 163 µM.

For `CC(C)C[C@@H]1NC(=O)[C@H](CCCCN)NC(=O)[C@H](CC(C)C)NC(=O)[C@@H]2CCCN2C(=O)[C@@H](Cc2ccc(O)cc2)NC(=O)[C@H](CC(C)C)NC(=O)[C@@H](CCCCN)NC(=O)[C@H](CC(C)C)NC(=O)[C@H](CCCCN)NC(=O)[C@H](CC(C)C)NC(=O)[C@@H]2CCCN2C(=O)[C@@H](Cc2ccc(O)cc2)NC(=O)[C@H](CC(C)C)NC(=O)[C@H](CCCCN)NC1=O` [V3/L3], the “Minimum Inhibitory Concentration (activity)” value in the series on C. xeroses was 1 µg/mL; in the series with C. Albicans it was 4 µg/mL; in the series on B. subtilis it was 9 µg/mL; with E. faecalis, 1.5 µg/mL; with E. coli DC2, 3.1 µg/mL; in the series with E. coli UB1005, 6.2 µg/mL. The “Minimum Inhibitory Concentration (activity)” value in the series with P. aeruginosa H188 came out at 3.1 µg/mL; in the series with S. aureus K147, 25 µg/mL; in the series with S. aureus SAP0017, 12.5 µg/mL; with S. epidermidis it was 1.5 µg/mL; with S. typhinurium C587 it was 100 µg/mL; with S. typhinurium C610, 15 µg/mL. In the series on P. aeruginosa H187, the “Minimum Inhibitory Concentration (activity)” value was 100 µg/mL. Moreover, the “Hemolytic activity: peptide concentration for 100% lysis of human erythrocytes” value in the series with human erythrocytes came to 25 µg/mL. The IC50 in series [1] was 46 µM.

With `C[C@@H]1NC(=O)[C@H](CCCCN)NC(=O)[C@H](C)NC(=O)[C@@H]2CCCN2C(=O)[C@@H](Cc2ccc(O)cc2)NC(=O)[C@H](C)NC(=O)[C@@H](CCCCN)NC(=O)[C@H](C)NC(=O)[C@H](CCCCN)NC(=O)[C@H](C)NC(=O)[C@@H]2CCCN2C(=O)[C@@H](Cc2ccc(O)cc2)NC(=O)[C@H](C)NC(=O)[C@H](CCCCN)NC1=O` [V3L3/A6], the “Minimum Inhibitory Concentration (activity)” value in the series on C. xeroses was 200 µg/mL; in the series on C. Albicans, 400 µg/mL; in the series with B. subtilis, above 200 µg/mL; with E. faecalis, above 200 µg/mL; in the series with E. coli DC2, above 200 µg/mL; in the series with E. coli UB1005 it was above 200 µg/mL. Besides, the “Minimum Inhibitory Concentration (activity)” value with P. aeruginosa H188 is 75 µg/mL; in the series with S. aureus K147, above 200 µg/mL; in the series with S. aureus SAP0017, above 200 µg/mL; in the series on S. epidermidis, above 200 µg/mL; in the series with S. typhinurium C587, above 200 µg/mL; in the series with S. typhinurium C610, above 200 µg/mL. Also, the “Minimum Inhibitory Concentration (activity)” value in the series on P. aeruginosa H187 was above 200 µg/mL. For the same compound, the “Hemolytic activity: peptide concentration for 100% lysis of human erythrocytes” value in the series with human erythrocytes is above 800 µg/mL. Moreover, in [1], the IC50 was determined as 291 µM.

For the compound `CC(C)C[C@@H]1NC(=O)[C@H](CCCCN)NC(=O)[C@H](CC(C)C)NC(=O)[C@@H]2CCCN2C(=O)[C@@H](Cc2ccccc2)NC(=O)[C@H](CC(C)C)NC(=O)[C@@H](CCCCN)NC(=O)[C@H](CC(C)C)NC(=O)[C@H](CCCCN)NC(=O)[C@H](CC(C)C)NC(=O)[C@@H]2CCCN2C(=O)[C@@H](Cc2ccccc2)NC(=O)[C@H](CC(C)C)NC(=O)[C@H](CCCCN)NC1=O` [Y2/F2 V3/L3], the “Minimum Inhibitory Concentration (activity)” value in the series with C. xeroses was 1 µg/mL; in the series with C. Albicans it was 3.1 µg/mL; with B. subtilis, 6.2 µg/mL; in the series on E. faecalis it was 1.5 µg/mL; in the series on E. coli DC2, 2 µg/mL; in the series on E. coli UB1005, 9 µg/mL. In addition, the “Minimum Inhibitory Concentration (activity)” value was 3.1 µg/mL in the series on P. aeruginosa H188; 9 µg/mL in the series with S. aureus K147; 9 µg/mL in the series on S. aureus SAP0017; 2 µg/mL with S. epidermidis; 35 µg/mL in the series on S. typhinurium C587; 12.5 µg/mL in the series with S. typhinurium C610. Further, the “Minimum Inhibitory Concentration (activity)” value with P. aeruginosa H187 was 12.5 µg/mL. Besides, the “Hemolytic activity: peptide concentration for 100% lysis of human erythrocytes” value with human erythrocytes (Tables 1, 4, 7) is 12.5 µg/mL. In addition, in [1], the IC50 came to 25 µM.
